Counter-ions that a name gives are not always drawn.
Key:
KIT kinase = KIT kinase (Homo sapiens (Human), UniProt P10721); test: Competition binding assay (Kd), KIT; conditions: competition binding assay
Summary of the method: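 Kd derived from eleven-point threefold serial dilutions of compound competing with bead-bound ligand for kinase; bound kinase eluted and measured by quantitative PCR. Kinase supplied either as a T7 phage fusion or expressed in HEK-293 cells with a DNA tag; DMSO served as control.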

FLT3 kinase = FLT3 kinase (Homo sapiens (Human), UniProt P36888); test: Competition binding assay (Kd), FLT3; conditions: competition binding assay
FLT3-ITD = FLT3-ITD (Homo sapiens (Human), UniProt P36888, INS600HVDFREYEYD); test: pFLT3 MSD assay, Ba/F3 FLT3-ITD; type: cell-based; conditions: Ba/F3 FLT3-ITD cells, 2 hours, read-out: BaF3-FLT3-ITD pFlt3 IC50
Sequence of FLT3-ITD (P36888 other isoform, or with tags, fused parts or gaps limits assumed, stated change not applied): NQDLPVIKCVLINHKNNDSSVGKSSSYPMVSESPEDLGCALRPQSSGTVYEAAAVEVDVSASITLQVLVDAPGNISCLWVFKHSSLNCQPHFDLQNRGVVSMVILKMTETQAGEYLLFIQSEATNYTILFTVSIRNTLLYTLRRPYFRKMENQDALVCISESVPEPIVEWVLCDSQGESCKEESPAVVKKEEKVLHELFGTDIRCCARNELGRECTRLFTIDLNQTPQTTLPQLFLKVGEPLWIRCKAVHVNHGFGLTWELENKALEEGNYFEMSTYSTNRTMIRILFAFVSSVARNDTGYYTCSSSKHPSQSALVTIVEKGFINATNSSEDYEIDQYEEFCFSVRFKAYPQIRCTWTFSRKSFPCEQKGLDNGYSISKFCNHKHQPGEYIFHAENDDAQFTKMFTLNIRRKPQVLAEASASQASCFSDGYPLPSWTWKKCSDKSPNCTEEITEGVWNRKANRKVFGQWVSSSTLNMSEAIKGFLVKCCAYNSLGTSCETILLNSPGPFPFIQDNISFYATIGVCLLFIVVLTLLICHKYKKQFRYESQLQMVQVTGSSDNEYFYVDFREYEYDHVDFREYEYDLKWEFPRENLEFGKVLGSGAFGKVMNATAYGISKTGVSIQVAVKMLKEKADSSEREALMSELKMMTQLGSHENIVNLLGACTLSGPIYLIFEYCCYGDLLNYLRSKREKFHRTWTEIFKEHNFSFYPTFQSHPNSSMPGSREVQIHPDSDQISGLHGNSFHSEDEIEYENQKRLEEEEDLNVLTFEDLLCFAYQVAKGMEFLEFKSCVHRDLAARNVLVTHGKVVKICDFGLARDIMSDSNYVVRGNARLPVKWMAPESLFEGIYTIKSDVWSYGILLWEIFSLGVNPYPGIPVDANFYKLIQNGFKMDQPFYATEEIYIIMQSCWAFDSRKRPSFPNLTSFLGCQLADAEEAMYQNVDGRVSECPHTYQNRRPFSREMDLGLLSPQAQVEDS

Sequence of FLT3 kinase (P36888 27-993): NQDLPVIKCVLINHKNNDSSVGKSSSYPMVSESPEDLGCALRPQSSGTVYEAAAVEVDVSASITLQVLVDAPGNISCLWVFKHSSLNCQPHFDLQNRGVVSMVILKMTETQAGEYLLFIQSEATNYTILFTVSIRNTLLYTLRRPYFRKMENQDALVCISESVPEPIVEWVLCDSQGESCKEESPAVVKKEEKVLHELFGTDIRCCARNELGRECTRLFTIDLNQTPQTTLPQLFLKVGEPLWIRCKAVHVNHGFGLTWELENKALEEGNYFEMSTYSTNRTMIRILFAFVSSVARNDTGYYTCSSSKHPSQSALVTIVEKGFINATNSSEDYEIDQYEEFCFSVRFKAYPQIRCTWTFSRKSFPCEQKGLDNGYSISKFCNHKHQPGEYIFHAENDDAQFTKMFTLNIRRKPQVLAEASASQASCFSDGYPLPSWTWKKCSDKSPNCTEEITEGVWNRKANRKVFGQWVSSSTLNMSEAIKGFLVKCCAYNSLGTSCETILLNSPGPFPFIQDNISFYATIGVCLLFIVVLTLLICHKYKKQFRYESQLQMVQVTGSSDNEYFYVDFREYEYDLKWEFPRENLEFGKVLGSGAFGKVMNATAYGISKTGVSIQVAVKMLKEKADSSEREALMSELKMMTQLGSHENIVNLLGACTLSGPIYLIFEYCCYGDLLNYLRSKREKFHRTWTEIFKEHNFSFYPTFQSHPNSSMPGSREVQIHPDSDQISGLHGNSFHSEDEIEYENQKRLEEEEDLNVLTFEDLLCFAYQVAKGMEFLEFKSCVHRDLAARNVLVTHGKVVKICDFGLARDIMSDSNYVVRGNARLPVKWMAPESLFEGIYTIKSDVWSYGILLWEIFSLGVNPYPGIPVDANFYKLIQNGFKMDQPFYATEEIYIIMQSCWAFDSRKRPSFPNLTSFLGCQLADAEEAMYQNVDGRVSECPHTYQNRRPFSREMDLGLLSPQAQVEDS
Sequence of KIT kinase (P10721 26-976): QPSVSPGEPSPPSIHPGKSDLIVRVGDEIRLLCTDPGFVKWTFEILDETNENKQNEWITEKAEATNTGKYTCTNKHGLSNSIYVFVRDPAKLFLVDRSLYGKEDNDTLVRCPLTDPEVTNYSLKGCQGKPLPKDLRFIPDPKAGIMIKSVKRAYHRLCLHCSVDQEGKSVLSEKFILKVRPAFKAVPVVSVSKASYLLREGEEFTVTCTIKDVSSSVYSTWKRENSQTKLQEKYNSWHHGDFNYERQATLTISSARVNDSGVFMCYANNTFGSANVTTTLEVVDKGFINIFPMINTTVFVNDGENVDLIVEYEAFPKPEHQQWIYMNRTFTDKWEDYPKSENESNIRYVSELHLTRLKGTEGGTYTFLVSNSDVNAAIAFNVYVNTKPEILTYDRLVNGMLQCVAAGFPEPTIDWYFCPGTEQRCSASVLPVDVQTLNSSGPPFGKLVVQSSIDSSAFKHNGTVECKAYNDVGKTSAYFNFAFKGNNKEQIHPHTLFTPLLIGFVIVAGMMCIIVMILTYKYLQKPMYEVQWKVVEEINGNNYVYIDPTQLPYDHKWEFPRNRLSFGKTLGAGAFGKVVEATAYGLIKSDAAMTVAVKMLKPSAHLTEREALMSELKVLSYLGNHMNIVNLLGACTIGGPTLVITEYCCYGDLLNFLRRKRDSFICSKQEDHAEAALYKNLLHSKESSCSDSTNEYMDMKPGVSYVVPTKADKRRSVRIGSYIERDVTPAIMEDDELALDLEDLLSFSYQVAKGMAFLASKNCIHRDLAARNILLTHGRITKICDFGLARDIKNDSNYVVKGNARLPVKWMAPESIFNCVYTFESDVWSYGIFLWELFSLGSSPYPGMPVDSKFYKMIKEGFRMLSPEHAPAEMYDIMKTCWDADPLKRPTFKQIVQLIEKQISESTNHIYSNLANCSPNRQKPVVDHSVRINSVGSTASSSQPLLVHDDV

Row | Compound | Kd (KIT kinase) [nM] | Kd (FLT3 kinase) [nM] | IC50 (FLT3-ITD) [nM]
1 | COc1ccc2cc(-c3ccc(CC(=O)Nc4cc(C5(C(F)(F)F)CC5)on4)cc3)cnc2c1 [Example 2, 2-(4-(7-methoxyquinolin-3-yl)phenyl)-N-(5-(1-(trifluoromethyl)cyclopropyl)isoxazol-3-yl)acetamide] | < 5 | < 5 | < 10
2 | O=C(Cc1ccc(-c2cnc3[nH]ccc3n2)cc1)Nc1cc(C2(C(F)(F)F)CC2)on1 [Example 3, 2-(4-(5H-pyrrolo[2,3-b]pyrazin-2-yl)phenyl)-N-(5-(1-(trifluoromethyl)cyclopropyl)isoxazol-3-yl)acetamide] | < 5 | < 5 | < 10
3 | COc1cc2ncc(-c3ccc(CC(=O)Nc4cc(C5(C(F)(F)F)CC5)on4)c(F)c3)nc2cc1OC [Example 4, 2-(4-(6,7-dimethoxyquinoxalin-2-yl)-2-fluorophenyl)-N-(5-(1-(trifluoromethyl)cyclopropyl)isoxazol-3-yl)acetamide] | < 5 | < 5 | < 10
4 | COc1cc2cc(-c3ccc(CC(=O)Nc4cc(C5(C(F)(F)F)CC5)on4)cc3)cnc2cc1OC [Example 5, 2-(4-(6,7-dimethoxyquinolin-3-yl)phenyl)-N-(5-(1-(trifluoromethyl)cyclopropyl)isoxazol-3-yl)acetamide] | < 5 | < 5 | < 10
5 | COc1cc2ncc(-c3ccc(CC(=O)Nc4cc(C(C)(C)C)on4)cc3)nc2cc1OC [Example 6, N-(5-(tert-butyl)isoxazol-3-yl)-2-(4-(6,7-dimethoxyquinoxalin-2-yl)phenyl)acetamide] | < 5 | < 5 | < 10
6 | COc1cc2ncc(-c3ccc(CC(=O)Nc4cc(C(C)(C)C(F)(F)F)on4)cc3)nc2cc1OC [Example 8, 2-(4-(6,7-dimethoxyquinoxalin-2-yl)phenyl)-N-(5-(1,1,1-trifluoro-2-methylpropan-2-yl)isoxazol-3-yl)acetamide] | < 5 | < 5 | < 10
7 | O=C(Cc1ccc(-c2cnc3[nH]ncc3c2)cc1)Nc1cc(C2(C(F)(F)F)CC2)on1 [Example 15, 2-(4-(1H-pyrazolo[3,4-b]pyridin-5-yl)phenyl)-N-(5-(1-(trifluoromethyl)cyclopropyl)isoxazol-3-yl)acetamide] | < 5 | – | < 10
8 | O=C(Cc1ccc(-c2cnc3[nH]ccc3c2)cc1)Nc1cc(C2(C(F)(F)F)CC2)on1 [Example 18, 2-(4-(1H-pyrrolo[2,3-b]pyridin-5-yl)phenyl)-N-(5-(1-(trifluoromethyl)cyclopropyl)isoxazol-3-yl)acetamide] | < 5 | – | < 10
9 | COc1cc2ncc(-c3ccc(CC(=O)Nc4cc(C(C)(C)C(F)(F)F)on4)c(F)c3)nc2cc1OC [Example 46, 2-(4-(6,7-dimethoxyquinoxalin-2-yl)-2-fluorophenyl)-N-(5-(1,1,1-trifluoro-2-methylpropan-2-yl)isoxazol-3-yl)acetamide] | 5 to 20 | < 5 | < 10
10 | CC(C)(c1cc(NC(=O)Cc2ccc(-c3cnc4[nH]nc(OC5CCNCC5)c4c3)cc2)no1)C(F)(F)F [Example 48, 2-(4-(3-(piperidin-4-yloxy)-1H-pyrazolo[3,4-b]pyridin-5-yl)phenyl)-N-(5-(1,1,1-trifluoro-2-methylpropan-2-yl)isoxazol-3-yl)acetamide formate salt] | – | – | < 10
11 | CN(C)C(=O)c1cc2cc(-c3ccc(CC(=O)Nc4cc(C(C)(C)C)on4)cc3)cnc2[nH]1 [Example 49, 5-(4-(2-((5-(tert-butyl)isoxazol-3-yl)amino)-2-oxoethyl)phenyl)-N,N-dimethyl-1H-pyrrolo[2,3-b]pyridine-2-carboxamide] | – | – | < 10
12 | CC(C)(C)c1cc(NC(=O)Cc2ccc(-c3cnc4[nH]c(CO)cc4c3)cc2)no1 [Example 50, N-(5-(tert-butyl)isoxazol-3-yl)-2-(4-(2-(hydroxymethyl)-1H-pyrrolo[2,3-b]pyridin-5-yl)phenyl)acetamide] | – | – | < 10
13 | Cc1n[nH]c2ncc(-c3ccc(CC(=O)Nc4cc(C(C)(C)C)on4)c(F)c3)cc12 [Example 51, N-(5-(tert-butyl)isoxazol-3-yl)-2-(2-fluoro-4-(3-methyl-1H-pyrazolo[3,4-b]pyridin-5-yl)phenyl)acetamide] | – | – | < 10
14 | CN(C)Cc1cc2cc(-c3ccc(CC(=O)Nc4cc(C(C)(C)C)on4)cc3)cnc2[nH]1 [Example 52, N-(5-(tert-butyl)isoxazol-3-yl)-2-(4-(2-((dimethylamino)methyl)-1H-pyrrolo[2,3-b]pyridin-5-yl)phenyl)acetamide] | – | – | < 10
15 | COc1n[nH]c2ncc(-c3ccc(CC(=O)Nc4cc(C5(C(F)(F)F)CC5)on4)c(F)c3)cc12 [Example 53, 2-(2-fluoro-4-(3-methoxy-1H-pyrazolo[3,4-b]pyridin-5-yl)phenyl)-N-(5-(1-(trifluoromethyl)cyclopropyl)isoxazol-3-yl)acetamide] | – | – | < 10
16 | CNCc1c[nH]c2ncc(-c3ccc(CC(=O)Nc4cc(C(C)(C)C)on4)cc3)cc12 [Example 54, N-(5-(tert-butyl)isoxazol-3-yl)-2-(4-(3-((methylamino)methyl)-1H-pyrrolo[2,3-b]pyridin-5-yl)phenyl)acetamide] | – | – | 10 to 20
17 | CC(C)(C)c1cc(NC(=O)Cc2ccc(-c3cnc4[nH]nc(CO)c4c3)cc2F)no1 [Example 55, N-(5-(tert-butyl)isoxazol-3-yl)-2-(2-fluoro-4-(3-(hydroxymethyl)-1H-pyrazolo[3,4-b]pyridin-5-yl)phenyl)acetamide] | – | – | < 10
18 | O=C(Cc1ccc(-c2cnc3[nH]ncc3c2)cc1F)Nc1cc(C2(C(F)(F)F)CCC2)on1 [Example 56, 2-(2-Fluoro-4-(1H-pyrazolo[3,4-b]pyridin-5-yl)phenyl)-N-(5-(1-(trifluoromethyl)cyclobutyl)isoxazol-3-yl)acetamide] | – | – | < 10
19 | CNCc1n[nH]c2ncc(-c3ccc(CC(=O)Nc4cc(C(C)(C)C)on4)c(F)c3)cc12 [Example 57, N-(5-(tert-butyl)isoxazol-3-yl)-2-(2-fluoro-4-(3-((methylamino)methyl)-1H-pyrazolo[3,4-b]pyridin-5-yl)phenyl)acetamide] | – | – | < 10
20 | CN(C)Cc1n[nH]c2ncc(-c3ccc(CC(=O)Nc4cc(C(C)(C)C)on4)c(F)c3)cc12 [Example 58, N-(5-(tert-butyl)isoxazol-3-yl)-2-(4-(3-((dimethylamino)methyl)-1H-pyrazolo[3,4-b]pyridin-5-yl)-2-fluorophenyl)acetamide] | – | – | < 10
21 | CN(C)Cc1c[nH]c2ncc(-c3ccc(CC(=O)Nc4cc(C(C)(C)C)on4)cc3)cc12 [Example 59, N-(5-(tert-butyl)isoxazol-3-yl)-2-(4-(3-((dimethylamino)methyl)-1H-pyrrolo[2,3-b]pyridin-5-yl)phenyl)acetamide formate salt] | – | – | < 10
22 | CC(C)(C)c1cc(NC(=O)Cc2ccc(-c3cnc4[nH]cc(CO)c4c3)cc2)no1 [Example 60, N-(5-(tert-butyl)isoxazol-3-yl)-2-(4-(3-(hydroxymethyl)-1H-pyrrolo[2,3-b]pyridin-5-yl)phenyl)acetamide] | – | – | < 10
23 | CN(C)c1n[nH]c2ncc(-c3ccc(CC(=O)Nc4cc(C5(C(F)(F)F)CC5)on4)c(F)c3)cc12 [Example 61, 2-(4-(3-(dimethylamino)-1H-pyrazolo[3,4-b]pyridin-5-yl)-2-fluorophenyl)-N-(5-(1-(trifluoromethyl)cyclopropyl)isoxazol-3-yl)acetamide] | – | – | < 10
24 | CC(O)c1n[nH]c2ncc(-c3ccc(CC(=O)Nc4cc(C(C)(C)C)on4)c(F)c3)cc12 (centres unmarked) [Example 62, N-(5-(tert-butyl)isoxazol-3-yl)-2-(2-fluoro-4-(3-(1-hydroxyethyl)-1H-pyrazolo[3,4-b]pyridin-5-yl)phenyl)acetamide] | < 5 | < 5 | < 10
25 | COc1n[nH]c2ncc(-c3ccc(CC(=O)Nc4cc(C(C)(C)C(F)(F)F)on4)c(F)c3)cc12 [Example 63, 2-(2-fluoro-4-(3-methoxy-1H-pyrazolo[3,4-b]pyridin-5-yl)phenyl)-N-(5-(1,1,1-trifluoro-2-methylpropan-2-yl)isoxazol-3-yl)acetamide] | < 5 | < 5 | < 10
26 | CC(C)(C)c1cc(NC(=O)Cc2ccc(-c3cnc4[nH]c(C(=O)NCCO)cc4c3)cc2)no1 [Example 64, 5-(4-(2-((5-(tert-butyl)isoxazol-3-yl)amino)-2-oxoethyl)phenyl)-N-(2-hydroxyethyl)-1H-pyrrolo[2,3-b]pyridine-2-carboxamide] | < 5 | < 5 | < 10
27 | CC(C)(C)c1cc(NC(=O)Cc2ccc(-c3cnc4[nH]ccc4c3)cc2)on1 [Example 71, 2-(4-(1H-pyrrolo[2,3-b]pyridin-5-yl)phenyl)-N-(3-(tert-butyl)isoxazol-5-yl)acetamide] | – | – | < 10
28 | COc1cc2ncc(-c3ccc(CC(=O)Nc4cc(C5(C(F)(F)F)CC5)no4)cc3)nc2cc1OC [Example 72, 2-(4-(6,7-dimethoxyquinoxalin-2-yl)phenyl)-N-(3-(1-(trifluoromethyl)cyclopropyl)isoxazol-5-yl)acetamide] | – | – | < 10
29 | COc1cc2ncc(-c3ccc(CC(=O)Nc4cc(C(C)(C)C)no4)cc3)nc2cc1OC [Example 73, N-(3-(tert-butyl)isoxazol-5-yl)-2-(4-(6,7-dimethoxyquinoxalin-2-yl)phenyl)acetamide] | – | – | < 10
30 | COc1cc2nc(-c3ccc(CC(=O)Nc4cc(C5(C(F)(F)F)CC5)on4)c(F)c3)cnc2cc1OC1CNC1 [Example 89, 2-(4-(6-(azetidin-3-yloxy)-7-methoxyquinoxalin-2-yl)-2-fluorophenyl)-N-(5-(1-(trifluoromethyl)cyclopropyl)isoxazol-3-yl)acetamide] | 5 to 20 | – | < 10

— US9725465B2, “Biaryl acetamide compounds and methods of use thereof” (Ambit Biosciences Corporation, priority 2013, dated 2017)
